Target: recombinant human 11β-HSD type 1 enzyme (Homo sapiens, UniProt P28845)
Test: 11β-HSD type 1 enzyme assay (NADPH production by fluorescence)
Assay type: biochemical
Conditions: three hour incubation at room temperature
Description: 11β-HSD Type 1 Enzyme Assay
Human 11β-HSD type 1 activity is measured by assaying NADPH production by fluorescence assay. Solid compounds are dissolved in DMSO to a concentration of 10 mM. Twenty microliters of each are then transferred to a column of a 96-well polypropylene Nunc plate where they are further diluted 50-fold followed by subsequent two-fold titration, ten times across the plate with additional DMSO using a Tecan Genesis 200 automated system. Plates are then transferred to a Tecan Freedom 200 system with an attached Tecan Temo 96-well head and an Ultra 384 plate reader. Reagents are supplied in 96-well polypropylene Nunc plates and are dispensed individually into black 96-well Molecular Devices High Efficiency assay plates (40 μL/well capacity) in the following fashion: 9 μL/well of substrate (2.22 mM NADP, 55.5 μM Cortisol, 10 mM Tris, 0.25% Prionex, 0.1% Triton X100), 3 μL/well of water to compound wells or 3 μL to control and standard wells, 6 μL/well recombinant human 11β-HSD type 1 enzyme, 2 μL/well of compound dilutions. For ultimate calculation of percent inhibition, a series of wells are added that represent assay minimum and maximum: one set containing substrate with 667 μM carbenoxolone (background), and another set containing substrate and enzyme without compound (maximum signal). Final DMSO concentration is 0.5% for all compounds, controls and standards. Plates are then placed on a shaker by the robotic arm of the Tecan for 15 seconds before being covered and stacked for a three hour incubation period at room temperature. Upon completion of this incubation, the Tecan robotic arm removes each plate individually from the stacker and places them in position for addition of 5 μL/well of a 250 μM carbenoxolone solution to stop the enzymatic reaction. Plates are then shaken once more for 15 seconds then placed into an Ultra 384 microplate reader (355EX/460EM) for detection of NADPH fluorescence.

Sequence of recombinant human 11β-HSD type 1 enzyme (P28845 whole entry): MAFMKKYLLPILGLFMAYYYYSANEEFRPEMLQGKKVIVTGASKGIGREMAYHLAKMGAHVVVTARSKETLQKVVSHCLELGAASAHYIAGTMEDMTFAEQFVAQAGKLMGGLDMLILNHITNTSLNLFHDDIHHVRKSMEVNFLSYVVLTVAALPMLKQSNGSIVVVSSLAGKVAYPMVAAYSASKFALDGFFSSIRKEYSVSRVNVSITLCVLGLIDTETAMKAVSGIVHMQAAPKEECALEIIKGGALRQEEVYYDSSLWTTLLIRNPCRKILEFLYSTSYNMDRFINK

Row | SMILES | IC50 [nM]
1 | O=C1C(Cc2sc3cc4c(cc3c2Cl)OCO4)CCN1C1CCCCC1 (stereo not shown) | 162
2 | O=C(O)c1ccc(-c2ccc3sc(CC4CCN(C5CCCCC5)C4=O)cc3c2)cc1 (stereo not shown) | 427
3 | O=C1C(Cc2sc3ccccc3c2Cl)CCCN1C1CCC(O)CC1 (stereo not shown) | 276

Now from value to compound:

Row | IC50 [nM] | SMILES
4 | 190 | O=C1C(Cc2cc3ccccc3s2)CCN1C1CCCCC1 (stereo not shown)
5 | 682 | O=C1C(Cc2cc3ccccc3o2)CCN1C1CCCCC1 (stereo not shown)
6 | 508 | COc1ccc2c(Cl)c(CC3CCN(C4CCCCC4)C3=O)sc2c1 (stereo not shown)
7 | 257 | O=C1C(Cc2cc3cc(-c4ccnc(F)c4)ccc3s2)CCN1C1CCCCC1 (stereo not shown)

Reference: patent US7834194B2, “Cycloalkyl lactam derivatives as inhibitors of 11-beta-hydroxysteroid dehydrogenase 1” (Eli Lilly and Company, priority 2004, dated 2010)
